Measurements reported in patent US12357624B2, “Low dose pridopidine for Parkinson's Disease and other diseases associated with parkinsonism” (PRILENIA NEUROTHERAPEUTICS LTD., priority 2019, dated 2025).
Read-outs that look alike come from different tables or passages of the source.

Legend:
[1] = test system: SOD1G93A motor neurons; conditions: 0.1 and 1 μM; cited from earlier work
[2] = test system: CD68-immunopositive microglial cells; conditions: 1 mg/kg
Experimental: Immunohistochemistry and quantitative analyses were performed according to established protocols [Francardo V, Bez F, Wieloch T, Nissbrandt H, Ruscher K, Cenci 33. MA. Neurobiology of Disease. […] Experimental Eye Research. […] (rabbit anti-TH antiserum from Pel-Freez, Rogers, AR, 1:1000) and Cluster of Differentiation 68 (CD68) (rat anti-CD68 antiserum from AbD Serotec, Kidlington, Oxfordshire, UK; 1:1000). Quantitative analyses were performed by an experimentally blinded investigator using the following methods.
The European Journal of Neuroscience. […] Seminars in Immunopathology.

[3] = test system: eIF2α-phosphorylation; conditions: tested 0.03 to 150 μM
From the text: The ratio of eIF2a-P to total eIF2a was quantified by immunoblot.

For `CCCN1CCC(c2cccc(S(C)(=O)=O)c2)CC1` [pridopidine, 4-[3-(methylsulfonyl)phenyl]-1-propyl-piperidine], which “BDNF axonal transport velocity” value [1] is on record?
Its value is “significantly accelerates the velocity”.

What about the “number of CD68-immunopositive microglial cells” value ([2]; SNc) of the same compound?
The value was “trend towards an effect in the SNc”.

And the “number of CD68-immunopositive microglial cells” value ([2]; ventrolateral striatum)?
The value was “not in the ventrolateral striatum”.

And the “effective concentrations for reduction of eIF2α-P” value [3]?
Its value is 0.03 to 3 µM.
